How the values were obtained:
PTPN2 (i.e., TC-PTP) = target: T1, PTPN2 (i.e., TC-PTP) (Homo sapiens, UniProt P17706); experiment: Phosphatase activity assay (DiFMUP substrate), PTPN2; type: biochemical; conditions: compounds binned ≤1 uM or >1 uM
T1 sequence (P17706 1-415): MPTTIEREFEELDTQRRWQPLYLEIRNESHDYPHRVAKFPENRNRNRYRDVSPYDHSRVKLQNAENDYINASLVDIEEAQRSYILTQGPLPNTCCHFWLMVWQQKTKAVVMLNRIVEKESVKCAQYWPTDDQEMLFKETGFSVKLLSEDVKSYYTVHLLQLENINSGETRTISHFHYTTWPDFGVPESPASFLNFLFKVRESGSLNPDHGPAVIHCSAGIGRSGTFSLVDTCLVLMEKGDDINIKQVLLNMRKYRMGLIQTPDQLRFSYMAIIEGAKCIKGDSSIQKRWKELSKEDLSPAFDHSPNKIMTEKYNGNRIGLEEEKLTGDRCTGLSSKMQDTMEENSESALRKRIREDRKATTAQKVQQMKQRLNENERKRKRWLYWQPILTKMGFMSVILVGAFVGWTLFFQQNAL
How it was run: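 Enzyme (e.g. PTPN2 0.025 ng/ul) mixed about 2 min with compound at 10 serial concentrations in 50 mM HEPES pH 7.5, 150 mM NaCl, 0.5 mM EDTA, 1 mM DTT, 0.001% Tween-20 at room temperature. DiFMUP added at each enzyme's Km (about 45 μM for PTPN2). DiFMU fluorescence (ex 360/em 450 nm) followed 15-30 min; IC50 from 4-parameter fit of rates.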

PTPN1 (i.e., PTP1B) = target: T2, PTPN1 (i.e., PTP1B) (Homo sapiens, UniProt P18031); experiment: Phosphatase activity assay (DiFMUP substrate), PTP1B; type: biochemical; conditions: compounds binned ≤1 uM or >1 uM
T2 sequence (P18031 1-435): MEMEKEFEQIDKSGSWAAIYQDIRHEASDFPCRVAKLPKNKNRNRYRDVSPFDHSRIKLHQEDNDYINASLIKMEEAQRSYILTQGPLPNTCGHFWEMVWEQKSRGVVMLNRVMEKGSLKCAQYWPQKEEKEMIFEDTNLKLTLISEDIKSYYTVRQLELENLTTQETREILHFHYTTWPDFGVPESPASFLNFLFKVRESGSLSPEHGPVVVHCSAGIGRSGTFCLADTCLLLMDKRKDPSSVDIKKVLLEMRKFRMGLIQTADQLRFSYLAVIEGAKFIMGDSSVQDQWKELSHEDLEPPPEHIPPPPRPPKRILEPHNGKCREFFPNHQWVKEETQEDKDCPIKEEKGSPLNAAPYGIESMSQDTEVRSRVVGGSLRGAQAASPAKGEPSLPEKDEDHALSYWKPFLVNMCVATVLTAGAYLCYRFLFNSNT
How it was run: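 First, serially diluted inhibitor is mixed about 2 minutes with enzyme in pH 7.5 HEPES/NaCl/EDTA/DTT/Tween-20 buffer. Next, DiFMUP is added at the enzyme's Km, approximately 45 μM for PTPN2. Finally, DiFMU appearance is read continuously at room temperature and rates are fitted for IC50.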

IC50 (PTPN2 (i.e., TC-PTP)) [nM]	IC50 (PTPN1 (i.e., PTP1B)) [nM]	SMILES
≤ 1000	≤ 1000	Cc1csc(-c2ccc(O)c(N3CC(=O)NS3(=O)=O)c2F)c1 [Compound 103, 5-(2-fluoro-6-hydroxy-3-(4-methylthiophen-2-yl)phenyl)-1,2,5-thiadiazolidin-3-one 1,1-dioxide]
≤ 1000	≤ 1000	O=C1CN(c2c(O)ccc(C3=CCN(S(=O)(=O)CCC(F)(F)F)C3)c2F)S(=O)(=O)N1 [Compound 251, 5-(2-fluoro-6-hydroxy-3-(1-((3,3,3-trifluoropropyl)sulfonyl)-2,5-dihydro-1H-pyrrol-3-yl)phenyl)-1,2,5-thiadiazolidin-3-one 1,1-dioxide]
≤ 1000	≤ 1000	O=C1CN(c2c(O)ccc(-c3cc(CCC4CC4)n[nH]3)c2F)S(=O)(=O)N1 [Compound 452, 5-(3-(3-(2-cyclopropylethyl)-1H-pyrazol-5-yl)-2-fluoro-6-hydroxyphenyl)-1,2,5-thiadiazolidin-3-one 1,1-dioxide]
≤ 1000	≤ 1000	O=C1CN(c2c(O)ccc(C3=CCSCC3)c2F)S(=O)(=O)N1 [Compound 294, 5-(3-(3,6-dihydro-2H-thiopyran-4-yl)-2-fluoro-6-hydroxyphenyl)-1,2,5-thiadiazolidin-3-one 1,1-dioxide]
≤ 1000	≤ 1000	O=C1CN(c2c(O)ccc(-c3cn(C4CCC(Br)CC4)cn3)c2F)S(=O)(=O)N1 (stereo not drawn) [Compound 423, 5-(3-(1-(4-bromocyclohexyl)-1H-imidazol-4-yl)-2-fluoro-6-hydroxyphenyl)-1,2,5-thiadiazolidin-3-one 1,1-dioxide]
≤ 1000	≤ 1000	CC(C)n1cnc(-c2ccc(O)c(N3CC(=O)NS3(=O)=O)c2F)c1 [Compound 165, 5-(2-fluoro-6-hydroxy-3-(1-isopropyl-1H-imidazol-4-yl)phenyl)-1,2,5-thiadiazolidin-3-one 1,1-dioxide]
≤ 1000	≤ 1000	O=C1CN(c2c(O)ccc(-c3cc(C4CC4)no3)c2F)S(=O)(=O)N1 [Compound 256, 5-(3-(3-cyclopropylisoxazol-5-yl)-2-fluoro-6-hydroxyphenyl)-1,2,5-thiadiazolidin-3-one 1,1-dioxide]
≤ 1000	≤ 1000	O=C1CN(c2c(O)ccc(-c3cc(CCC(F)(F)F)n[nH]3)c2F)S(=O)(=O)N1 [Compound 415, 5-(2-fluoro-6-hydroxy-3-(3-(3,3,3-trifluoropropyl)-1H-pyrazol-5-yl)phenyl)-1,2,5-thiadiazolidin-3-one 1,1-dioxide]
≤ 1000	≤ 1000	O=C1CN(c2c(O)ccc(-c3cnn(C4CC5(CC5)C4)c3)c2F)S(=O)(=O)N1 [Compound 414, 5-(2-fluoro-6-hydroxy-3-(1-(spiro[2.3]hexan-5-yl)-1H-pyrazol-4-yl)phenyl)-1,2,5-thiadiazolidin-3-one 1,1-dioxide]
≤ 1000	≤ 1000	O=C1CN(c2c(O)ccc(C3=CC(COC(F)F)NC3)c2F)S(=O)(=O)N1 (stereo not drawn) [Compound 480, 5-(3-(5-((difluoromethoxy)methyl)-2,5-dihydro-1H-pyrrol-3-yl)-2-fluoro-6-hydroxyphenyl)-1,2,5-thiadiazolidin-3-one 1,1-dioxide]
≤ 1000	≤ 1000	O=C1CN(c2c(O)ccc(-c3cc(C4CC4(F)F)no3)c2F)S(=O)(=O)N1 (stereo not drawn) [Compound 490, 5-(3-(3-(2,2-difluorocyclopropyl)isoxazol-5-yl)-2-fluoro-6-hydroxyphenyl)-1,2,5-thiadiazolidin-3-one 1,1-dioxide]
≤ 1000	≤ 1000	CC1(n2cc(-c3ccc(O)c(N4CC(=O)NS4(=O)=O)c3F)cn2)CC1 [Compound 324, 5-(2-fluoro-6-hydroxy-3-(1-(1-methylcyclopropyl)-1H-pyrazol-4-yl)phenyl)-1,2,5-thiadiazolidin-3-one 1,1-dioxide]
≤ 1000	≤ 1000	O=C1CN(c2c(O)ccc(-c3ccc(NC(=O)C4CC4(F)F)cc3)c2F)S(=O)(=O)N1 (stereo not drawn) [Compound 403, N-(3′-(1,1-dioxido-4-oxo-1,2,5-thiadiazolidin-2-yl)-2′-fluoro-4′-hydroxy-[1,1′-biphenyl]-4-yl)-2,2-difluorocyclopropane-1-carboxamide]
≤ 1000	≤ 1000	N#Cc1ccc(Cn2cc(-c3ccc(O)c(N4CC(=O)NS4(=O)=O)c3F)cn2)cc1 [Compound 224, 4-((4-(3-(1,1-dioxido-4-oxo-1,2,5-thiadiazolidin-2-yl)-2-fluoro-4-hydroxyphenyl)-1H-pyrazol-1-yl)methyl)benzonitrile]
≤ 1000	≤ 1000	O=C1CN(c2c(O)ccc(-c3ccn(CC4CCCCC4)c3)c2F)S(=O)(=O)N1 [Compound 272, 5-(3-(1-(cyclohexylmethyl)-1H-pyrrol-3-yl)-2-fluoro-6-hydroxyphenyl)-1,2,5-thiadiazolidin-3-one 1,1-dioxide]
≤ 1000	≤ 1000	CC(C)CCn1cnc(-c2ccc(O)c(C3=CC(=O)NS3(=O)=O)c2F)c1 [Compound 391, 5-(2-fluoro-6-hydroxy-3-(1-isopentyl-1H-imidazol-4-yl)phenyl)isothiazol-3(2H)-one 1,1-dioxide]
> 1000	> 1000	CC(C)CCn1cc(-c2cc(O)cc(N3CC(=O)NS3(=O)=O)c2)cn1 [Compound 184, 5-(3-hydroxy-5-(1-isopentyl-1H-pyrazol-4-yl)phenyl)-1,2,5-thiadiazolidin-3-one 1,1-dioxide]
≤ 1000	≤ 1000	CC(C)(C)n1cc(-c2ccc(O)c(N3CC(=O)NS3(=O)=O)c2F)cn1 [Compound 293, 5-(3-(1-(tert-butyl)-1H-pyrazol-4-yl)-2-fluoro-6-hydroxyphenyl)-1,2,5-thiadiazolidin-3-one 1,1-dioxide]
≤ 1000	≤ 1000	COc1cc(-c2ccc(O)c(N3CC(=O)NS3(=O)=O)c2F)ccn1 [Compound 107, 5-(2-fluoro-6-hydroxy-3-(2-methoxypyridin-4-yl)phenyl)-1,2,5-thiadiazolidin-3-one 1,1-dioxide]
≤ 1000	≤ 1000	N#CC1(Cn2cc(-c3ccc(O)c(N4CC(=O)NS4(=O)=O)c3F)cn2)CCC1 [Compound 313, 1-((4-(3-(1,1-dioxido-4-oxo-1,2,5-thiadiazolidin-2-yl)-2-fluoro-4-hydroxyphenyl)-1H-pyrazol-1-yl)methyl)cyclobutane-1-carbonitrile]
≤ 1000	≤ 1000	O=C1CN(c2c(O)ccc(C3CCN(S(=O)(=O)C4CC4)CC3)c2F)S(=O)(=O)N1 [Compound 285, 5-(3-(1-(cyclopropylsulfonyl)piperidin-4-yl)-2-fluoro-6-hydroxyphenyl)-1,2,5-thiadiazolidin-3-one 1,1-dioxide]

From patent US20240398828A1, “HETERO-ATOM CONTAINING COMPOUNDS AND USES THEREOF” (Kumquat Biosciences Inc., priority 2021, published 2024)
